Here are results for 20 compounds from US10604487B2, “Pyridinol derivative or pharmaceutically acceptable salt thereof, and pharmaceutical composition containing same as active ingredient” (Research Cooperation Foundation of Yeungnam University, priority 2016, dated 2020).

The structures appear in SMILES notation.

The nature of series [1]: Cytotoxicity test (MTT), U937. In kind it is cell-based. The settings on record: human, U937, 48 h; for viability at 48 h, 0.01 µM / viability at 48 h, 0.1 µM / viability at 48 h, 1 µM / viability at 48 h, 10 µM / viability at 48 h, 100 µM: U937 cells (monocytic blood cancer-derived cell line), read-out: Cell viability (% of control); for IC50 at 48 h: U937 cells. Here is the method:
(§1) The human colorectal cancer cell line HT-29 and the monocytic blood cancer-derived cell line U937 were cultured in a RPMI 1640 medium containing 10% FBS and 1% penicillin/streptomycin (PS) at 37° C. under a condition of 5% CO2, and when the cells used herein were grown to 80% or more, they were subcultured at a ratio of 1:3.
(§2) Each type of cells were cultured in a 96 well plate at a concentration of 1×10^5 cells/cm2, treated with a test compound by concentration in a medium only containing 1% FBS and 1% PS at 37° C. under a condition of 5% CO2 for 48 hours and reacted with 5 mg/mL of a 3-[4,5-dimethylthiazol-2-yl]-2,5-diphenyltetrazolium bromide (MTT) reagent for 4 hours, and then the medium was completely removed, the cells were treated with DMSO, formazan crystals were dissolved for 30 minutes, and then absorbance was measured at 540 nm.

A short description of series [2]: Cytotoxicity test (MTT), HT-29. In kind it is cell-based. The conditions noted are these: human, HT-29, 48 h; for viability at 48 h, 0.01 µM / viability at 48 h, 0.1 µM / viability at 48 h, 1 µM / viability at 48 h, 10 µM / viability at 48 h, 100 µM: HT-29 cells (colorectal cancer cell line), read-out: Cell viability (% of control); for IC50 at 48 h: HT-29 cells, read-out: IC50 (μM), cytotoxicity. The protocol:
as §1, §2

The test system of series [3] is TNF-α-induced adhesion of monocytes to intestinal epithelial cells. Nature of the series: Inhibitory activity against TNF-α-induced adhesion of monocytes (U937) to intestinal epithelial cells (HT-29). The series is classed as cell-based, human. The settings on record: Homo sapiens, 1 μM test drug; HT-29/U937 adhesion, 10 ng/mL TNF-α; read-out: Inhibitory activity (%). The protocol:
HT-29 human colorectal cancer-derived epithelial cells and U937 human-derived monocytic cells were cultured in an RPMI 1640 medium containing 10% FBS and 1% penicillin/streptomycin (PS) at 37° C. under a condition of 5% CO2, and when the cells were grown to 80% or more in a culture flask, they were subcultured in a ratio of 1:3 to be used in this test. The HT-29 cells were cultured in a 24-well plate at a concentration of 2×10^5 cells/cm2, and then the medium only containing 1% FBS and 1% PS was pretreated with a test drug for 1 hour. Afterward, BCECF-loaded U937 cells by being treated with 10 μg/mL of BCECF-AM at 37° C. for 30 minutes and 10 ng/mL of TNF-α reacted with the HT-29 cells previously treated with the test drug at 37° C. for 3 hours. After the reaction, the medium was removed, and then the cells were washed with PBS twice to remove U937 cells that were not adhered. In a subsequent step, for cell lysis, 0.1% Triton X-100 (0.1 M Tris) was treated to allow a reaction at room temperature for 30 minutes, and then fluorescence was measured using a Fluostar optima microplate reader (BMG LABTECH, Germany) to quantify the cells (Carvalho et al., 1996; Thapa et al., 2008).

Take `Cc1nc(NC(=O)NS(=O)(=O)c2ccccc2)c(C)c(C)c1O` [Compound 16-6, N-((5-hydroxy-3,4,6-trimethylpyridin-2-yl)carbamoyl)benzenesulfonamide]: in series [1], the viability at 48 h, 0.01 µM was 91.6 ± 2.6%; the viability at 48 h, 0.1 µM was 94.3 ± 2.6%; the viability at 48 h, 1 µM was determined as 85.8 ± 2.7%; the viability at 48 h, 10 µM was determined as 83.5 ± 1.1%. Also, in series [1], the viability at 48 h, 100 µM came to 84.9 ± 2% and the IC50 at 48 h is over 100 µM. Also, in series [2], the viability at 48 h, 0.01 µM amounted to 90 ± 3.5%; the viability at 48 h, 0.1 µM is 85.4 ± 0.9%; the viability at 48 h, 1 µM was 76 ± 7.2%; the viability at 48 h, 10 µM came out at 77.9 ± 3.5%. Further, in series [2], the viability at 48 h, 100 µM is 53.6 ± 2.5% and the IC50 at 48 h is over 100 µM. Also, in series [3], the inhibition at 1 µM is 17.5%.
For the compound `Cc1nc(NC(=O)Nc2cccc3ccccc23)c(C)c(C)c1O` [Compound 16-5, 1-(5-hydroxy-3,4,6-trimethylpyridin-2-yl)-3-(naphthalen-1-yl)urea], in series [1], the viability at 48 h, 0.01 µM stood at 88.1 ± 1.9%; the viability at 48 h, 0.1 µM is 85.4 ± 6.4%; the viability at 48 h, 1 µM worked out at 90.9 ± 1.2%; the viability at 48 h, 10 µM was 88.5 ± 2.8%. In addition, in series [1], the viability at 48 h, 100 µM worked out at 79.6 ± 2.7% and the IC50 at 48 h was over 100 µM. Also, in series [2], the viability at 48 h, 0.01 µM was 105 ± 1.1%; the viability at 48 h, 0.1 µM turned out to be 94.3 ± 2.1%; the viability at 48 h, 1 µM turned out to be 78.6 ± 10.1%; the viability at 48 h, 10 µM was determined as 73.4 ± 5.6%. Besides, in series [2], the viability at 48 h, 100 µM came to 76.7 ± 1.1% and the half-inhibitory concentration (IC50) at 48 h was over 100 µM. Further, the inhibition at 1 µM in series [3] is 20.2%.
For `Cc1ccc(S(=O)(=O)Nc2nc(C)c(O)c(C)c2C)cc1` [Compound 22-2, N-(5-hydroxy-3,4,6-trimethylpyridin-2-yl)-4-methylbenzenesulfonamide], in series [1], the viability at 48 h, 0.01 µM was 96.6 ± 1.6%; the viability at 48 h, 0.1 µM was determined as 94.5 ± 6.3%; the viability at 48 h, 1 µM is 96.1 ± 3.8%; the viability at 48 h, 10 µM is 90.5 ± 1.7%. Moreover, in series [1], the viability at 48 h, 100 µM came out at 60.9 ± 1.7% and the IC50 at 48 h was over 100 µM. Besides, in series [2], the viability at 48 h, 0.01 µM was 77.1 ± 3%; the viability at 48 h, 0.1 µM turned out to be 76.9 ± 4%; the viability at 48 h, 1 µM was 73.8 ± 5.8%; the viability at 48 h, 10 µM is 71.5 ± 4.6%. In series [2], the viability at 48 h, 100 µM is 62.8 ± 0.5% and the concentration for half-maximal inhibition (IC50) at 48 h was over 100 µM. Moreover, in series [3], the inhibition at 1 µM came out at 42.1%.
As for `Cc1nc(NC(=O)OCC(C)C)c(C)c(C)c1O` [Compound 20-3, isobutyl (5-hydroxy-3,4,6-trimethylpyridin-2-yl)carbamate], in series [1], the viability at 48 h, 0.01 µM was determined as 86.3 ± 0.4%; the viability at 48 h, 0.1 µM worked out at 86.3 ± 0.9%; the viability at 48 h, 1 µM amounted to 80.9 ± 2.1%; the viability at 48 h, 10 µM was found to be 82.2 ± 0.5%. Besides, in series [1], the viability at 48 h, 100 µM worked out at 72.5 ± 1.9% and the IC50 at 48 h is over 100 µM. Besides, in series [2], the viability at 48 h, 0.01 µM was 101 ± 1.9%; the viability at 48 h, 0.1 µM was determined as 91 ± 3.6%; the viability at 48 h, 1 µM is 93.3 ± 4.7%; the viability at 48 h, 10 µM is 83.7 ± 3.3%. For the same compound, in series [2], the viability at 48 h, 100 µM stood at 71.2 ± 3.4% and the IC50 at 48 h is over 100 µM. In addition, the inhibition at 1 µM in series [3] worked out at 6%.
For the compound `COCCOC(=O)Nc1nc(C)c(O)c(C)c1C` [Compound 20-5, 2-methoxyethyl (5-hydroxy-3,4,6-trimethylpyridin-2-yl)carbamate], in series [1], the viability at 48 h, 0.01 µM is 85.4 ± 4.4%; the viability at 48 h, 0.1 µM came to 84.2 ± 4.1%; the viability at 48 h, 1 µM came to 81.2 ± 0.7%; the viability at 48 h, 10 µM worked out at 79.9 ± 0.8%. Also, in series [1], the viability at 48 h, 100 µM came out at 77.9 ± 0.8% and the IC50 at 48 h is over 100 µM. In series [2], the viability at 48 h, 0.01 µM was 89.7 ± 1.2%; the viability at 48 h, 0.1 µM stood at 83.2 ± 2.6%; the viability at 48 h, 1 µM is 84.7 ± 1.6%; the viability at 48 h, 10 µM was found to be 85.5 ± 3.3%. For the same compound, in series [2], the viability at 48 h, 100 µM was determined as 82.3 ± 1.1% and the IC50 at 48 h is over 100 µM. Also, the inhibition at 1 µM in series [3] is -22.5%.
Take `COc1ccc(NC(=S)Nc2nc(C)c(O)c(C)c2C)cc1` [Compound 18-12, 1-(5-Hydroxy-3,4,6-trimethylpyridin-2-yl)-3-(4-methoxyphenyl)thiourea]: in series [3], the inhibition at 1 µM was 13.3%.
Regarding `Cc1nc(O)c(C)c(C)c1O` [Compound 28-1, 3,4,6-Trimethylpyridine-2,5-diol], in series [3], the inhibition at 1 µM was at least 50%.
In the case of `Cc1nc(NC(=O)Nc2ccc(C(F)(F)F)cc2)c(C)c(C)c1O` [Compound 16-11, 1-(5-hydroxy-3,4,6-trimethylpyridin-2-yl)-3-(4-(trifluoromethyl)phenyl)urea], in series [3], the inhibition at 1 µM turned out to be 52.7%.
On the same count and under the same terms, the figure for `Cc1ccc(NC(=O)Nc2nc(C)c(O)c(C)c2C)cc1` [Compound 16-9, 1-(5-hydroxy-3,4,6-trimethylpyridin-2-yl)-3-(p-tolyl)urea] is 20.1%.
The same measure, in the same setting: the value for `CCCCCCCCOc1nc(C)c(O)c(C)c1C` [Compound 28-3, 2,4,5-Trimethyl-6-(octyloxy)pyridin-3-ol] was 30.4%.
For `Cc1nc(NC(=S)Nc2cccc(C(F)(F)F)c2)c(C)c(C)c1O[Si](c1ccccc1)(c1ccccc1)C(C)(C)C` [Compound 17-9c, 1-(5-((tert-Butyldiphenylsilyl)oxy)-3,4,6-trimethylpyridin-2-yl)-3-(3-(trifluoromethyl)phenyl)thiourea], in series [3], the inhibition at 1 µM was 25.9%.
On the same count and under the same terms, the figure for `Cc1nc(OCCC(C)C)c(C)c(C)c1O` [Compound 28-4, 6-isopentyloxy-2,4,5-trimethylpyridin-3-ol] is 33.2%; for `CCCCOc1nc(C)c(O)c(C)c1C` [Compound 28-2, 6-butoxy-2,4,5-trimethylpyridin-3-ol] it is 48.2%; for `COc1ccc(NC(=O)Nc2nc(C)c(O)c(C)c2C)cc1` [Compound 16-10, 1-(5-Hydroxy-3,4,6-trimethylpyridin-2-yl)-3-(4-methoxyphenyl)urea] it is 12.6%.
Still for that read-out and setting: the value for `Cc1nc(NC(=O)Nc2ccc(OC(F)(F)F)cc2)c(C)c(C)c1O` [Compound 16-13, 1-(5-hydroxy-3,4,6-trimethylpyridin-2-yl)-3-(4-(trifluoromethoxy)phenyl)urea] was 12.6%; that for `Cc1nc(NC(=S)Nc2cccc(C(F)(F)F)c2)c(C)c(C)c1OCc1ccccc1` [Compound 17-9a, 1-(5-benzyloxy-3,4,6-trimethylpyridin-2-yl)-3-(3-(trifluoromethyl)phenyl)thiourea] was 19.6%; that for `Cc1nc(NC(=O)Nc2ccc(C(C)C)cc2)c(C)c(C)c1O` [Compound 16-15, 1-(5-hydroxy-3,4,6-trimethylpyridin-2-yl)-3-(4-isopropylphenyl)urea] was 11.5%.
Take `Cc1nc(OC2CCCC2)c(C)c(C)c1O` [Compound 28-5, 6-cyclopentyloxy-2,4,5-trimethylpyridin-3-ol]: the inhibition at 1 µM in series [3] worked out at 28.8%.
Regarding `Cc1nc(NC(=S)Nc2ccc(Cl)c(Cl)c2)c(C)c(C)c1OCc1ccccc1` [Compound 17-8a, 1-(5-benzyloxy-3,4,6-trimethylpyridin-2-yl)-3-(3,4-dichlorophenyl)thiourea], in series [3], the inhibition at 1 µM worked out at 17.3%.
With `Cc1nc(NC(=O)NCc2ccccc2)c(C)c(C)c1O` [Compound 16-14, 1-benzyl-3-(5-hydroxy-3,4,6-trimethylpyridin-2-yl)urea], in series [3], the inhibition at 1 µM is 4.9%.

A word on the viability: it is a read-out of living cells in per cent, often relative to untreated cells. As a reminder, the IC50 is the concentration needed to halve the response being measured.
